# Test results reported in ChEMBL document CHEMBL5137070, “N-2-(Phenylamino) Benzamide Derivatives as Dual Inhibitors of COX-2 and Topo I Deter Gastrointestinal Cancers via Targeting Inflammation and Tumor Progression” (J Med Chem, 2022).
# The source made the active and inactive calls. The calls are words filed in the database; no cut-off is given here.
# How the values were obtained:
# HGC-27 [1] = experiment: Induction of cell cycle arrest in human HGC-27 cells assessed as accumulation at G2/M phase at 3.3 to 10 uM for 24 hrs by propidium iodide staining based flow cytometry; assay type: functional; settings: dose 3.3-10 µM
# [2] = Toxicity in BALB/c mouse xenografted with mouse CT26.WT assessed as pathological changes in lung at 100 mg/kg, ip twice daily and measured after 14 days by hematoxylin and eosin staining based microscopic analysis; assay type: organism-based; settings: in vivo, 336 h, time 14 day
# HGC-27 [3] = experiment: Induction of apoptosis in human HGC-27 cells assessed as increase in Bax/Bcl-2 ratio expression at 1.1 to 10 uM incubated for 24 hrs by western blot assay; assay type: functional, cell-based; settings: dose 1.1-10 µM
# CT26.WT [4] = experiment: Anti-tumor activity against mouse CT26.WT xenografted in BALB/c mouse assessed as increase in cleaved caspase-3 expression level at 100 mg/kg, ip twice daily and measured after 14 days by immunohistochemical analysis; assay type: functional, organism-based; settings: time 14.0 day
# HGC-27 [5] = experiment: Induction of apoptosis in human HGC-27 cells assessed as increase in caspase-3 activity at 1.1 uM incubated for 36 hrs by flow cytometry (Rvb= 9.39%); assay type: functional
# RKO [6] = experiment: Anti-migration activity against human RKO cells assessed as decrease in cell migration rate at 0.37 uM for 48 hrs by crystalline violet staining based assay; assay type: functional
# CT26.WT [7] = experiment: Anti-tumor activity against mouse CT26.WT xenografted in BALB/c mouse assessed as decrease in tumor size at 100 mg/kg, ip twice daily and measured upto 14 days relative to control; assay type: functional, organism-based; settings: time <= 14.0 day
# [8] = Acute toxicity in Kunming mouse assessed as mortality at 100 mg/kg,ip and measured upto 14 days; assay type: organism-based; settings: in vivo, 336 h, time < 14 day
# RKO [9] = experiment: Effect on cell morphology in human RKO cells assessed as appearance of round cells at 10 uM incubated for 48 hrs by giemsa staining based microscopic analysis; assay type: functional
# HGC-27 [10] = experiment: Induction of pro-apoptosis in human HGC-27 assessed as DNA breakdown by analyzing DNA ladder at 1.1 to 10 uM for 36 hrs by ethidium bromide staining based agarose gel electrophoresis; assay type: functional, cell-based; settings: dose 1.1-10 µM
# HGC-27 [11] = experiment: Induction of apoptosis in human HGC-27 cells assessed as increase in cleaved caspase-3 expression at 1.1 to 10 uM incubated for 24 hrs by western blot assay; assay type: functional, cell-based; settings: dose 1.1-10 µM
# DNA topoisomerase 1 = biological target: T1, DNA topoisomerase 1 (Homo sapiens, UniProt P11387); experiment: Inhibition of human topoisomerase I assessed as DNA relaxation using DNA pBR322 as substrate incubated for 30 mins by ethidium bromide staining based agarose gel electrophoresis
# T1 sequence (P11387 whole entry): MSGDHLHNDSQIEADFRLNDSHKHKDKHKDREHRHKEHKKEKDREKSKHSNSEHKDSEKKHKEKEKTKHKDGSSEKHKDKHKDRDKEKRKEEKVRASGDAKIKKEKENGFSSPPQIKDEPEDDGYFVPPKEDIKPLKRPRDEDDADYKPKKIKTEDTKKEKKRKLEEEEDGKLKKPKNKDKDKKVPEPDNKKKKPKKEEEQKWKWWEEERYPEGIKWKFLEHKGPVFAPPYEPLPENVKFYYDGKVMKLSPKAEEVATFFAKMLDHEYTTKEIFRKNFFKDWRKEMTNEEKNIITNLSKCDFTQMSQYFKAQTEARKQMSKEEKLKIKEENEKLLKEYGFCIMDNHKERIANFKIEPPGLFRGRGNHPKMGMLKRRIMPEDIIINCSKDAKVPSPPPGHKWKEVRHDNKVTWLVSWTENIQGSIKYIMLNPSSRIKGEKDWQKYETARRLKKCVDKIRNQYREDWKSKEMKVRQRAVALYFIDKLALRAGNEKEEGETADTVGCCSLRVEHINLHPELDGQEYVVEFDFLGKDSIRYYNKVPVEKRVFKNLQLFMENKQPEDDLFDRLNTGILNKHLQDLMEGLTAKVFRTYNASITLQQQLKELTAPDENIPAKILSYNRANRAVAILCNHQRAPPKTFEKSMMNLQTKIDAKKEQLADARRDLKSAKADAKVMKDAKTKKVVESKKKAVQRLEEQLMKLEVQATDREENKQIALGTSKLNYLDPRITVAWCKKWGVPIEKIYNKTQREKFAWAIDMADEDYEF
# [12] = Toxicity in BALB/c mouse xenografted with mouse CT26.WT assessed as pathological changes in spleen at 100 mg/kg, ip twice daily and measured after 14 days by hematoxylin and eosin staining based microscopic analysis; assay type: organism-based; settings: in vivo, 336 h, time 14 day
# HGC-27 [13] = experiment: Effect on cell morphology in human HGC-27 cells assessed as appearance of round cells at 10 uM incubated for 48 hrs by giemsa staining based microscopic analysis; assay type: functional
# RAW264.7 [14] = experiment: Antiinflammatory activity in mouse RAW264.7 cells assessed as reduction in LPS-induced COX-2 expression at 6.6 uM incubated for 1 hrs followed by LPS stimulation and measured after 24 hrs by western blot analysis; assay type: functional, cell-based; settings: time 25.0 hrs
# RKO [15] = experiment: Antiproliferative activity against human RKO cells assessed as reduction in cell proliferation incubated for 48 hrs by MTT assay; assay type: functional, cell-based
# RKO [16] = experiment: Effect on cell morphology in human RKO cells assessed as lose of adherence at 10 uM incubated for 48 hrs by giemsa staining based microscopic analysis; assay type: functional
# RKO [17] = experiment: Induction of apoptosis in human RKO cells assessed as increase in caspase-3 activity at 1.1 to 10 uM incubated for 36 hrs by flow cytometry; assay type: functional, cell-based; settings: dose 1.1-10 µM, DDE = dose-dependent effect
# [18] = Metabolic stability in rat whole blood assessed as parent compound remaining at 23.76 to 536 ug/mL and measured upto 4 hrs by HPLC analysis; assay type: ADME, tissue-based; settings: at 23.76 to 536 µg/mL, dose 23.76-536 µg/ml, read-out: Stability
# RKO [19] = experiment: Antiproliferative activity against human RKO cells assessed as clone formation at 0.04 to 3.3 uM incubated for 4 days by crystal violet staining based analysis; assay type: functional, cell-based; settings: dose 0.04-3.3 µM, time 4.0 day
# [20] = AUC (0 to infinity) in Sprague-Dawley rat at 100 mg/kg, ip and measured upto 8 hrs by LC-MS/MS analysis; assay type: ADME, organism-based; design: dose 100 mg/kg, time < 8 hrs, route ip; settings: in vivo
# RAW264.7 [21] = experiment: Antiinflammatory activity against LPS-stimulated mouse RAW264.7 cells assessed decrease in IL-1beta release at 6.6 uM incubated for 1 hrs followed by LPS stimulation and measured after 24 hrs by ELISA relative to control; assay type: functional, cell-based; settings: time 25.0 hrs
# RKO [22] = experiment: Effect on cell morphology in human RKO cells assessed as contracted nucleus at 10 uM incubated for 48 hrs by giemsa staining based microscopic analysis; assay type: functional
# [23] = biological target: T2, DNA topoisomerase 1 (Homo sapiens) (UniProt P11387); experiment: Inhibition of human topoisomerase I assessed as DNA unwinding using DNA pBR322 as substrate at 2 uM incubated for 30 mins by ethidium bromide staining based agarose gel electrophoresis
# T2 sequence (whole entry): T1 sequence (P11387 whole entry)
# HGC-27 [24] = experiment: Induction of apoptosis in human HGC-27 cells assessed as increase in cleaved caspase-9 expression at 1.1 to 10 uM incubated for 24 hrs by western blot assay; assay type: functional, cell-based; settings: dose 1.1-10 µM
# RAW264.7 [25] = experiment: Inhibition of LPS induced NO production in mouse RAW264.7 cells at 6.6 uM incubated for 1 hrs followed by LPS stimulation and measured after 24 hrs by Griess reagent based assay; assay type: functional, cell-based; settings: time 25.0 hrs
smiles,measurement,setting,value
Cc1c(Cl)cccc1Nc1ccc(F)cc1C(=O)NCc1ccc(O)c(O)c1,Activity,HGC-27 [1],Active
same,Activity,[2],Non-Toxic
same,Activity,HGC-27 [3],Active
same,Activity,CT26.WT [4],Active
same,Activity,HGC-27 [5],57.64%
same,Activity,RKO [6],Active
same,Activity,CT26.WT [7],Active
same,Activity,[8],Non-Toxic
same,Activity,RKO [9],Active
same,Activity,HGC-27 [10],Active
same,Activity,HGC-27 [11],Active
same,IC50,DNA topoisomerase 1,4.42 µM
same,Activity,[12],Non-Toxic
same,Activity,HGC-27 [13],Active
same,Activity,RAW264.7 [14],Active
same,IC50,RKO [15],3.12 µM
same,Activity,RKO [16],Active
same,Activity,RKO [17],Dde
same,remaining at 4 h,[18],> 90%
same,Activity,RKO [19],Active
same,AUC(0-inf),[20],18600 ng·h/mL
same,Activity,RAW264.7 [21],Active
same,Activity,RKO [22],Active
same,inhibition,[23],45.4%
same,Activity,HGC-27 [24],Active
same,inhibition,RAW264.7 [25],Active
